Source: PubChem BioAssay AID252 (DTP/NCI, 2004)
“And” between values parts separate entries of the source, which are not always exact repeats. Identical values can stand only once. Inconclusive results and toxic doses are left out.

Test system: BDF1 mice, intracerebral L1210 leukemia, survival T/C
Experiment: NCI In Vivo Anticancer Drug Screen. Data for tumor model L1210 Leukemia (intracerebral) in B6D2F1 (BDF1) mice
Conditions: higher = longer survival
Method in brief: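 Antitumour effect is judged in mice with transplanted tumour by comparing survival of treated (T) against vehicle-dosed (C) groups as T/C.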

SMILES: CC(CN1CC(=O)NC(=O)C1)N1CC(=O)NC(=O)C1 (stereo unspecified)
- T/C (endpoint: mean survival time, dose: 1.56 mg/kg/injection, schedule: Q03HX024 (ip), vehicle: steriod suspending solution): 108 % of control and 118 % of control
- T/C (endpoint: mean survival time, dose: 3.12 mg/kg/injection, schedule: Q03HX024 (ip), vehicle: steriod suspending solution): 162 % of control
- T/C (endpoint: mean survival time, dose: 12.5 mg/kg/injection, schedule: Q01DX009 (ip), vehicle: steriod suspending solution): 124 % of control
- T/C (endpoint: mean survival time, dose: 25.0 mg/kg/injection, schedule: Q03HX024 (ip), vehicle: steriod suspending solution): 180 % of control
- T/C (endpoint: mean survival time, dose: 50.0 mg/kg/injection, schedule: Q04DX003 (ip), vehicle: steriod suspending solution): 122 % of control
- T/C (endpoint: mean survival time, dose: 100.0 mg/kg/injection, schedule: Q01DX009 (ip), vehicle: steriod suspending solution): 97 % of control
- T/C (endpoint: mean survival time, dose: 108.0 mg/kg/injection, schedule: Q04DX003 (ip), vehicle: other): 104 % of control and 122 % of control
- T/C (endpoint: mean survival time, dose: 108.0 mg/kg/injection, schedule: Q04DX003 (ip), vehicle: steriod suspending solution): 108 % of control
- T/C (endpoint: mean survival time, dose: 180.0 mg/kg/injection, schedule: Q04DX003 (ip), vehicle: other): 104 % of control and 118 % of control
- T/C (endpoint: mean survival time, dose: 180.0 mg/kg/injection, schedule: Q04DX003 (ip), vehicle: steriod suspending solution): 108 % of control and 123 % of control
- T/C (endpoint: mean survival time, dose: 200.0 mg/kg/injection, schedule: Q01DX001 (ip), vehicle: steriod suspending solution): 111 % of control
- T/C (endpoint: mean survival time, dose: 400.0 mg/kg/injection, schedule: Q01DX001 (ip), vehicle: steriod suspending solution): 110 % of control
- T/C (endpoint: mean survival time, dose: 500.0 mg/kg/injection, schedule: Q04DX003 (ip), vehicle: other): 107 % of control and 117 % of control
- T/C (endpoint: mean survival time, dose: 500.0 mg/kg/injection, schedule: Q04DX003 (ip), vehicle: steriod suspending solution): 111 % of control and 122 % of control
- T/C (endpoint: mean survival time, dose: 800.0 mg/kg/injection, schedule: Q04DX003 (ip), vehicle: steriod suspending solution): 115 % of control and 86 % of control (2×)
- T/C (endpoint: mean survival time, dose: 833.0 mg/kg/injection, schedule: Q04DX003 (ip), vehicle: Klucel (hydroxypropylcellulose) (HPC)): 103 % of control
- T/C (endpoint: median survival time, dose: 16.0 mg/kg/injection, schedule: Q01DX009 (ip), vehicle: Klucel (hydroxypropylcellulose) (HPC)): 116 % of control
- T/C (endpoint: median survival time, dose: 64.0 mg/kg/injection, schedule: Q01DX009 (ip), vehicle: Klucel (hydroxypropylcellulose) (HPC)): 114 % of control
- T/C (endpoint: median survival time, dose: 108.0 mg/kg/injection, schedule: Q04DX003 (ip), vehicle: Klucel (hydroxypropylcellulose) (HPC)): 118 % of control
- T/C (endpoint: median survival time, dose: 128.0 mg/kg/injection, schedule: Q01DX009 (ip), vehicle: Klucel (hydroxypropylcellulose) (HPC)): 109 % of control and 123 % of control and 95 % of control

SMILES: O=NN(CCCl)C(=O)NC1CCC(NC(=O)N(CCCl)N=O)CC1 (stereo unspecified)
- T/C (endpoint: mean survival time, dose: 38.0 mg/kg/injection, schedule: Q01DX001 (oral), vehicle: other): 119 % of control
- T/C (endpoint: mean survival time, dose: 48.0 mg/kg/injection, schedule: Q01DX001 (ip), vehicle: other): 151 % of control and 157 % of control
- T/C (endpoint: mean survival time, dose: 84.0 mg/kg/injection, schedule: Q01DX001 (oral), vehicle: other): 154 % of control
- T/C (endpoint: mean survival time, dose: 96.0 mg/kg/injection, schedule: Q01DX001 (ip), vehicle: other): 276 % of control and 370 % of control
- T/C (endpoint: mean survival time, dose: 127.0 mg/kg/injection, schedule: Q01DX001 (ip), vehicle: carboxymethylcellulose (CMC)): 232 % of control
- T/C (endpoint: mean survival time, dose: 171.0 mg/kg/injection, schedule: Q01DX001 (oral), vehicle: other): 209 % of control
- T/C (endpoint: mean survival time, dose: 191.0 mg/kg/injection, schedule: Q01DX001 (ip), vehicle: other): 291 % of control and 389 % of control
- T/C (endpoint: mean survival time, dose: 255.0 mg/kg/injection, schedule: Q01DX001 (ip), vehicle: carboxymethylcellulose (CMC)): 307 % of control
- T/C (endpoint: mean survival time, dose: 319.0 mg/kg/injection, schedule: Q01DX001 (oral), vehicle: other): 198 % of control and 260 % of control
- T/C (endpoint: mean survival time, dose: 383.0 mg/kg/injection, schedule: Q01DX001 (ip), vehicle: other): 154 % of control
- T/C (endpoint: mean survival time, dose: 510.0 mg/kg/injection, schedule: Q01DX001 (ip), vehicle: carboxymethylcellulose (CMC)): 154 % of control
- T/C (endpoint: mean survival time, dose: 638.0 mg/kg/injection, schedule: Q01DX001 (oral), vehicle: other): 268 % of control and 398 % of control

SMILES: O=C(NO)c1ccncc1
- T/C (endpoint: mean survival time, dose: 100.0 mg/kg/injection, schedule: Q01DX009 (ip), vehicle: water): 91 % of control
- T/C (endpoint: mean survival time, dose: 200.0 mg/kg/injection, schedule: Q01DX009 (ip), vehicle: water): 92 % of control
- T/C (endpoint: mean survival time, dose: 400.0 mg/kg/injection, schedule: Q01DX009 (ip), vehicle: water): 86 % of control
- T/C (endpoint: mean survival time, dose: 600.0 mg/kg/injection, schedule: Q01DX009 (ip), vehicle: water): 89 % of control

SMILES: NCCc1ccc(O)c(O)c1
- T/C (endpoint: mean survival time, dose: 100.0 mg/kg/injection, schedule: Q04DX003 (ip), vehicle: saline): 102 % of control
- T/C (endpoint: mean survival time, dose: 200.0 mg/kg/injection, schedule: Q04DX003 (ip), vehicle: saline): 95 % of control
- T/C (endpoint: mean survival time, dose: 400.0 mg/kg/injection, schedule: Q04DX003 (ip), vehicle: saline): 98 % of control
- T/C (endpoint: mean survival time, dose: 800.0 mg/kg/injection, schedule: Q04DX003 (ip), vehicle: saline): 97 % of control

SMILES: O=NN(CCCl)C(=O)NC1CCC(O)CC1 (stereo unspecified)
- T/C (endpoint: mean survival time, dose: 13.0 mg/kg/injection, schedule: Q01DX001 (ip), vehicle: saline with Tween-80): 152 % of control
- T/C (endpoint: mean survival time, dose: 13.0 mg/kg/injection, schedule: Q01DX001 (ip), vehicle: saline): 177 % of control
- T/C (endpoint: mean survival time, dose: 20.0 mg/kg/injection, schedule: Q01DX001 (ip), vehicle: saline with Tween-80): 418 % of control
- T/C (endpoint: mean survival time, dose: 26.0 mg/kg/injection, schedule: Q01DX001 (ip), vehicle: saline): 448 % of control
- T/C (endpoint: mean survival time, dose: 30.0 mg/kg/injection, schedule: Q01DX001 (ip), vehicle: saline with Tween-80): 479 % of control
- T/C (endpoint: mean survival time, dose: 40.0 mg/kg/injection, schedule: Q01DX001 (ip), vehicle: saline): 479 % of control
- T/C (endpoint: mean survival time, dose: 44.0 mg/kg/injection, schedule: Q01DX001 (ip), vehicle: saline with Tween-80): 286 % of control
- T/C (endpoint: mean survival time, dose: 60.0 mg/kg/injection, schedule: Q01DX001 (ip), vehicle: saline): 322 % of control
- T/C (endpoint: mean survival time, dose: 67.0 mg/kg/injection, schedule: Q01DX001 (ip), vehicle: saline with Tween-80): 96 % of control
- T/C (endpoint: mean survival time, dose: 90.0 mg/kg/injection, schedule: Q01DX001 (ip), vehicle: saline): 114 % of control

SMILES: Cc1cccc(C)c1NC(=O)N(CCCl)N=O
- T/C (endpoint: mean survival time, dose: 13.0 mg/kg/injection, schedule: Q01DX001 (ip), vehicle: carboxymethylcellulose (CMC)): 113 % of control
- T/C (endpoint: mean survival time, dose: 20.0 mg/kg/injection, schedule: Q01DX001 (ip), vehicle: carboxymethylcellulose (CMC)): 112 % of control
- T/C (endpoint: mean survival time, dose: 30.0 mg/kg/injection, schedule: Q01DX001 (ip), vehicle: carboxymethylcellulose (CMC)): 119 % of control

SMILES: CC(Cl)CNC(=O)N(CC(C)Cl)N=O (stereo unspecified)
- T/C (endpoint: mean survival time, dose: 250.0 mg/kg/injection, schedule: Q01DX001 (ip), vehicle: carboxymethylcellulose (CMC)): 107 % of control
- T/C (endpoint: mean survival time, dose: 500.0 mg/kg/injection, schedule: Q01DX001 (ip), vehicle: carboxymethylcellulose (CMC)): 112 % of control
- T/C (endpoint: mean survival time, dose: 1000.0 mg/kg/injection, schedule: Q01DX001 (ip), vehicle: carboxymethylcellulose (CMC)): 204 % of control
